Reference: patent publication US20120214811A1, “RAF INHIBITOR COMPOUNDS AND METHODS OF USE THEREOF” (priority 2009, published 2012)
pIC50: −log10 of the molar value.

system: basal ERK1/2 phosphorylation; experiment: Cellular ERK 1/2 phosphorylation assay in Malme-3M cells; format: cell-based; conditions: Homo sapiens, 1 hour incubation, pERK signal normalized to total ERK, read-out: IC50, inhibition of basal ERK1/2 phosphorylation
Description: Inhibition of basal ERK1/2 phosphorylation was determined by the following in vitro […], which comprises incubating cells with a compound of Formula II for 1 hour and quantifying the fluorescent pERK signal on fixed cells and normalizing to total ERK signal.
Materials and Methods: Malme-3M cells were obtained from ATCC and grown in RPMI-1640 supplemented with 10% fetal bovine serum. Cells were plated in 96-well plates at 24,000 cells/well and allowed to attach for 16-20 hours at 37° C., 5% CO2. The media was removed, and DMSO-diluted compounds were added in RPMI-1640 at a final concentration of 1% DMSO. The cells were incubated with the compounds for 1 hour at 37° C., 5% CO2. The cells were washed with PBS and fixed in 3.7% formaldehyde in PBS for 15 minutes. This was followed by washing in PBS/0.05% Tween20 and permeabilizing in −20° C. 100% MeOH for 15 minutes. Cells were washed in PBS/0.05% Tween20 then blocked in Odyssey blocking buffer (LI-COR Biosciences) for 1 hour. Antibodies to phosphorylated ERK (1:400, Cell Signaling #9106, monoclonal) and total ERK (1:400, Santa Cruz Biotechnology #sc-94, polyclonal) were added to the cells and incubated 16-20 hours at 4° C. […] Cells were then washed and analyzed for fluorescence at both wavelengths using the Odyssey Infrared Imaging System (LI-COR Biosciences). […]

First: CCCS(=O)(=O)Nc1ccc(F)c(NC(=O)Nc2cc(N)ncn2)c1F [Example 2, N-(3-(3-(6-aminopyrimidin-4-yl)ureido)-2,4-difluorophenyl)propane-1-sulfonamide]
Second: CCCS(=O)(=O)Nc1ccc(F)c(NC(=O)Nc2cc(NC)ncn2)c1Cl [Example 8, Propane-1-sulfonic acid {2-chloro-4-fluoro-3-[3-(6-methylamino-pyrimidin-4-yl)-ureido]-phenyl}-amide]
The pIC50 of the first is 0.46 log units lower: about 6.36 for the first, about 6.82 for the second.

biological target: T1, V600E full-length B-Raf (Homo sapiens, UniProt P15056, V600E); experiment: B-Raf IC50 assay (incorporation of radio labeled phosphate from [γ-33P]ATP into FSBA-modified wild-type MEK); format: biochemical; conditions: Example A assay; 4 μM ATP, 20 nM V600E full-length B-Raf, 60-minute incubation at 22° C.; read-out: BRAF V600E IC50
T1 construct: 1 μM FSBA-MEK and 20 nM V600E full-length B-Raf; made in house; host or cells: Sf9 insect cells (baculovirus)
T1 sequence (P15056 whole entry V600E): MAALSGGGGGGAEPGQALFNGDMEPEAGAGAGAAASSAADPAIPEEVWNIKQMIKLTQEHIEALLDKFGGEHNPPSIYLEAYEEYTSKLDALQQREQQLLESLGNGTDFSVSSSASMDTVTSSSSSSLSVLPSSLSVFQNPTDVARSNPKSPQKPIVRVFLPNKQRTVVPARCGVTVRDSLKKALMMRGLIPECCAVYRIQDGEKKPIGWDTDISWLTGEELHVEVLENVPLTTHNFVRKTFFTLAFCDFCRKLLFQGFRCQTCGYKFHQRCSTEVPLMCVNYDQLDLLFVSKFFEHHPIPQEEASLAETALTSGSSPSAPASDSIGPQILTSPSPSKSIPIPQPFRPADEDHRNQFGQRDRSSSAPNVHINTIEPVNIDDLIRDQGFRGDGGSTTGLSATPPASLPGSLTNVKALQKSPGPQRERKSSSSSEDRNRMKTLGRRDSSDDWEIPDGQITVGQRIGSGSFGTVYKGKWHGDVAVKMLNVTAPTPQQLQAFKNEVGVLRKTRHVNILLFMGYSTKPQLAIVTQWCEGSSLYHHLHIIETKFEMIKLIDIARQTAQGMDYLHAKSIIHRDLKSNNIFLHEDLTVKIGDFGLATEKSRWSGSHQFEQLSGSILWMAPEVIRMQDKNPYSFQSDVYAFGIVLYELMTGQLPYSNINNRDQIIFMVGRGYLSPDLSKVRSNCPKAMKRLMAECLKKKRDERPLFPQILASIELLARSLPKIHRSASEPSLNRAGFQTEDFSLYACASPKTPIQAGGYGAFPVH
From the text: Determining the activity of Raf in the sample is possible by a number of direct and indirect detection methods (US 2004/0082014). Activity of human recombinant B-Raf protein may be assessed in vitro by assay of the incorporation of radio labeled phosphate to recombinant MAP kinase (MEK), a known physiologic substrate of B-Raf, according to US 2004/0127496 and WO 03/022840. The activity/inhibition of V600E full-length B-Raf was estimated by measuring the incorporation of radio labeled phosphate from [γ-^33]ATP into FSBA-modified wild-type MEK (see Example A).
Activity of human recombinant B-Raf protein may be assessed in vitro by assay of the incorporation of radio labeled phosphate to recombinant MAP kinase (MEK), a known physiologic substrate of B-Raf, according to US 2004/0127496 and WO 03/022840. Catalytically active human recombinant B-Raf protein is obtained by purification from sf9 insect cells infected with a human B-Raf recombinant baculovirus expression vector.
The activity/inhibition of V600E full-length B-Raf was estimated by measuring the incorporation of radio labeled phosphate from [γ-^33P]ATP into FSBA-modified wild-type MEK. The 30-μL assay mixtures contained 25 mM Na Pipes, pH 7.2, 100 mM KCl, 10 mM MgCl2, 5 mM β-glycerophosphate, 100 μM Na Vanadate, 4 μM ATP, 500 nCi [γ-^33P]ATP, 1 μM FSBA-MEK and 20 nM V600E full-length B-Raf. Incubations were carried out at 22° C. in a Costar 3365 plate (Corning). Prior to the assay, the B-Raf and FSBA-MEK were preincubated together in assay buffer at 1.5× (20 μL of 30 nM and 1.5 μM, respectively) for 15 minutes, and the assay was initiated by the addition of 10 μL of 10 μM ATP. Following the 60-minute incubation, the assay mixtures were quenched by the addition of 100 μL of 25% TCA, the plate was mixed on a rotary shaker for 1 minute, and the product was captured on a Perkin-Elmer GF/B filter plate using a Tomtec Mach III Harvester. After sealing the bottom of the plate, 35 μL of Bio-Safe II (Research Products International) scintillation cocktail were added to each well and the plate was top-sealed and counted in a Topcount NXT (Packard).

Compared with `CCCS(=O)(=O)Nc1ccc(F)c(NC(=O)N(C)c2cc(NC)ncn2)c1F` [Example 17, N-(2,4-difluoro-3-(3-methyl-3-(6-(methylamino)pyrimidin-4-yl)ureido)phenyl)propane-1-sulfonamide], `CCCS(=O)(=O)Nc1ccc(F)c(NC(=O)N(C)c2cc(NN)ncn2)c1F` [Example 20, N-(2,4-difluoro-3-(3-(6-hydrazinylpyrimidin-4-yl)-3-methylureido)phenyl) propane-1-sulfonamide] is 0.41 log units higher in pIC50: 7.07 for the first, 7.48 for the second. The second is the more potent here.

`CCCS(=O)(=O)Nc1ccc(F)c(NC(=O)N(C)c2cc(NCCN3CCOCC3)ncn2)c1F` [Example 22, N-(2,4-difluoro-3-(3-methyl-3-(6-(2 morpholinoethylamino)pyrimidin-4-yl)ureido)phenyl)propane-1-sulfonamide] and `CCCS(=O)(=O)Nc1ccc(F)c(NC(=O)Nc2cc(NCCN3CCOCC3)ncn2)c1F` [Example 6, N-(2,4-difluoro-3-(3-(6-(2-morpholinoethylamino)pyrimidin-4-yl)ureido)phenyl)propane-1-sulfonamide] are within 0.2 log units of each other in pIC50: 6.21 for the first, 6.27 for the second.

First: CCCS(=O)(=O)Nc1ccc(F)c(NC(=O)N(C)c2ccncn2)c1F [Example 11, Propane-1-sulfonic acid [2,4-difluoro-3-(3-methyl-3-pyrimidin-4-yl-ureido)-phenyl]-amide]
Second: CCCS(=O)(=O)Nc1ccc(F)c(NC(=O)N(C)c2cc(N)ncn2)c1F [Example 15, N-(3-(3-(6-aminopyrimidin-4-yl)-3-methylureido)-2,4-difluorophenyl)propane-1-sulfonamide]
The pIC50 of the first is 1.17 log units lower: 5.91 for the first, 7.08 for the second. The second is the more potent here.

Compared with `CCCS(=O)(=O)Nc1ccc(F)c(NC(=O)Nc2ncnc(Nc3ccc(F)cc3)n2)c1F` [Example 23, N-(2,4-Difluoro-3-(3-(4-(4-fluorophenylamino)-1,3,5-triazin-2-yl)ureido)phenyl)propane-1-sulfonamide], `CCCS(=O)(=O)Nc1ccc(F)c(NC(=O)Nc2ncnc(NC)n2)c1F` [Example 26, N-(2,4-Difluoro-3-(3-(4-(methylamino)-1,3,5-triazin-2-yl)ureido)phenyl)propane-1-sulfonamide] is 1.24 log units lower in pIC50: 7.87 for the first, 6.63 for the second. The first is the more potent here.

First: CCCS(=O)(=O)Nc1ccc(F)c(NC(=O)Nc2ccncn2)c1F [Example 7, Propane-1-sulfonic acid [2,4-difluoro-3-(3-pyrimidin-4-yl-ureido)-phenyl]-amide]
Second: CCCS(=O)(=O)Nc1ccc(F)c(NC(=O)Nc2cc(N)ncn2)c1F [Example 2, N-(3-(3-(6-aminopyrimidin-4-yl)ureido)-2,4-difluorophenyl)propane-1-sulfonamide]
The pIC50 of the first is 0.99 log units lower: 5.86 for the first, 6.85 for the second. The second is the more potent here.

`CCCS(=O)(=O)Nc1ccc(F)c(NC(=O)Nc2cc(NCC)ncn2)c1F` [Example 1, Propane-1-sulfonic acid {3-[3-(6-ethylamino-pyrimidin-4-yl)-ureido]-2,4-difluoro-phenyl}-amide] and `CCCS(=O)(=O)Nc1ccc(F)c(NC(=O)Nc2cc(NC)ncn2)c1F` [Example 3, N-(2,4-difluoro-3-(3-(6-(methylamino)pyrimidin-4-yl)ureido)phenyl)propane-1-sulfonamide] are within 0.2 log units of each other in pIC50: 7.55 for the first, 7.51 for the second.

Going from `CCCS(=O)(=O)Nc1ccc(F)c(NC(=O)N(C)c2cc(NC3CCC3)ncn2)c1F` [Example 18, N-(3-(3-(6-(cyclobutylamino)pyrimidin-4-yl)-3-methylureido)-2,4-difluorophenyl)propane-1-sulfonamide] to `CCCS(=O)(=O)Nc1ccc(F)c(NC(=O)N(C)c2cc(NC3CC3)ncn2)c1F` [Example 13, N-(3-(3-(6-(cyclopropylamino)pyrimidin-4-yl)-3-methylureido)-2,4-difluorophenyl)propane-1-sulfonamide], the pIC50 rises from 7.08 to 7.66 (0.58 log units). The second is the more potent here.

First: CCCS(=O)(=O)Nc1ccc(F)c(NC(=O)Nc2cc(NC)ncn2)c1Cl [Example 8, Propane-1-sulfonic acid {2-chloro-4-fluoro-3-[3-(6-methylamino-pyrimidin-4-yl)-ureido]-phenyl}-amide]
Second: CCCS(=O)(=O)Nc1ccc(Cl)c(NC(=O)Nc2cc(NC)ncn2)c1F [Example 9, N-4-Chloro-2-fluoro-3-(3-((6-(methylamino)pyrimidin-4-yl)ureido)phenyl)propane-1-sulfonamide]
The pIC50 of the first is 0.35 log units lower: 7.70 for the first, 8.05 for the second. The second is the more potent here.

Compared with `CCCS(=O)(=O)Nc1ccc(F)c(NC(=O)N(C)c2cc(NC3CCOC3)ncn2)c1F` (stereo not shown) [Example 19, N-(2,4-difluoro-3-(3-methyl-3-(6-(tetrahydrofuran-3-ylamino)pyrimidin-4-yl)ureido)phenyl)propane-1-sulfonamide], `CCCS(=O)(=O)Nc1ccc(F)c(NC(=O)N(C)c2cc(NCC)ncn2)c1F` [Example 14, N-(3-(3-(6-(ethylamino)pyrimidin-4-yl)-3-methylureido)-2,4-difluorophenyl)propane-1-sulfonamide] is 1.04 log units higher in pIC50: 6.55 for the first, 7.59 for the second. The second is the more potent here.

`CCCS(=O)(=O)Nc1ccc(F)c(NC(=O)N(C)c2cc(NC(C)C)ncn2)c1F` [Example 21, N-(2,4-difluoro-3-(3-(6-(isopropylamino)pyrimidin-4-yl)-3-methylureido)phenyl) propane-1-sulfonamide] and `CCCS(=O)(=O)Nc1ccc(F)c(NC(=O)N(C)c2cc(NCCO)ncn2)c1F` [Example 16, N-(2,4-difluoro-3-(3-(6-(2-hydroxyethylamino)pyrimidin-4-yl)-3-methylureido)phenyl) propane-1-sulfonamide] are within 0.2 log units of each other in pIC50: 6.88 for the first, 6.92 for the second.

Compared with `CCCS(=O)(=O)Nc1ccc(F)c(NC(=O)N(C)c2cc(Nc3ccn(C)n3)ncn2)c1F` [Example 12, Propane-1-sulfonic acid (2,4-difluoro-3-{3-methyl-3-[6-(1-methyl-1H-pyrazol-3-ylamino)-pyrimidin-4-yl]-ureido}-phenyl)-amide], `CCCS(=O)(=O)Nc1ccc(F)c(NC(=O)Nc2cc(NC(C)C)ncn2)c1F` [Example 4, N-(2,4-difluoro-3-(3-(6-(isopropylamino)pyrimidin-4-yl)ureido)phenyl)propane-1-sulfonamide] is 0.45 log units lower in pIC50: 7.23 for the first, 6.78 for the second. The first is the more potent here.

Compared with `CCCS(=O)(=O)Nc1ccc(F)c(NC(=O)Nc2cc(NCCO)ncn2)c1F` [Example 5, N-(2,4-difluoro-3-(3-(6-(2-hydroxyethylamino)pyrimidin-4-yl)ureido)phenyl)propane-1-sulfonamide], `CCCS(=O)(=O)Nc1ccc(F)c(NC(=O)Nc2ncncn2)c1F` [Example 24, N-(3-(3-1,3,5-Triazin-2-ylureido)-2,4-difluorophenyl)propane-1-sulfonamide] is 0.29 log units lower in pIC50: 7.20 for the first, 6.91 for the second.

Going from `CCCS(=O)(=O)Nc1ccc(F)c(NC(=O)Nc2ncncc2-c2ccc(Cl)cc2)c1F` [Example 25] to `CCCS(=O)(=O)Nc1ccc(Cl)c(NC(=O)Nc2cc(NCc3ccccc3)ncn2)c1F` [Example 10, N-(3-(3-(6-(Benzylamino)pyrimidin-4-yl)ureido)-4-chloro-2-fluorophenyl)propane-1-sulfonamide], the pIC50 rises from 6.54 to 7.72 (1.18 log units).
